Assay results as given in doi:10.1101/2021.04.29.441652v1 (biorxiv, 2021).

Molecular target: human σ2 receptor (TMEM97) (Homo sapiens, UniProt Q5BJF2)
Assay: biochemical
Format: Expi293 membranes
Settings: read-out: % of control remaining

Sequence of human σ2 receptor (TMEM97) (Q5BJF2 whole entry): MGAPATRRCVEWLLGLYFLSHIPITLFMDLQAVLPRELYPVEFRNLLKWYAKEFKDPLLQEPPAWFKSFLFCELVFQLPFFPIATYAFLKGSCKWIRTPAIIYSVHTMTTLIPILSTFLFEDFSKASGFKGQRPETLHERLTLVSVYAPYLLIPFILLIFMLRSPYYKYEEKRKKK

remaining activity at 1 µM	Compound
92.8%	Cc1ccnc2nc(C(=O)NCC3CN(CCCC4CCC4)C3)nn12 [ZINC001032169623]
24.6%	CCN(C(=O)c1cnccn1)[C@@H]1CCN(CC2CCCCCC2)C1 [ZINC001033739722]
43.3%	CCN(C(=O)c1ccnc(C2CC2)n1)[C@H]1CCN(CC2CCC2)C1 [ZINC001033973784]
119%	CCc1ocnc1C(=O)NC[C@H]1CN(C[C@@H](C)CC)CCO1 [ZINC001035320653]
115%	C[C@@H](O)CN1CC[C@H](C2CCN(C(=O)CN3CCOCC3)CC2)C1 [ZINC001039123057]
100%	COc1ccnc(CN2CCC3(CC2)CCN(C(=O)C(C)C)C3)c1 [ZINC001040612984]
117%	COCCC(=O)N1CC[C@@](O)(CNC(=O)[C@@H]2CCN(C)C2=O)C1 [ZINC001040614201]
98.6%	O=C(NCC1(O)CN(C(=O)CCn2ccnc2)C1)[C@H]1CC=CCC1 [ZINC001041431730]
110%	O=C([C@@H]1CCCN(CC(F)F)C1)N1CC[C@]2(CCN(CCO)C2)C1 [ZINC001041605786]
103%	CN1CC[C@@H](C(=O)N2CC[C@@]3(CCN(Cc4nnn(C)n4)C3)C2)C1 [ZINC001041828396]
102%	CN1CCC[C@H]1C(=O)NCC1(O)CN(C(=O)CCc2ncccn2)C1 [ZINC001042098162]
125%	Cn1nc(C(=O)N2CC(O)(CNC(=O)C3=CCOCC3)C2)ccc1=O [ZINC001042722400]
84.5%	CNC(=O)NCC(=O)N1CC(O)(CNC(=O)c2ccc(F)s2)C1 [ZINC001043696212]
116%	CN1CCCC[C@@H]1C(=O)NCC1(O)CN(C(=O)CCc2cn[nH]c2)C1 [ZINC001043772717]
88.5%	CN(C)c1ccc(C(=O)N2CC(O)(CNC(=O)c3cnn[nH]3)C2)nc1 [ZINC001043817104]
114%	CCC[C@@H]1C[C@H]1C(=O)NCC1(O)CN(C(=O)C2CN(C(C)=O)C2)C1 [ZINC001046261579]

remaining activity at 1 µM	Compound
101%	Cc1nc[nH]c1C(=O)N1CC(O)(CNC(=O)CN2CC[C@H](C)C2)C1 [ZINC001046685471]
104%	C[C@H](C(=O)NCC1(O)CN(C(=O)Cn2ncnn2)C1)C1CCCC1 [ZINC001046914841]
110%	NC(=O)[C@@H]1CCC[C@@H](C(=O)NCC2(O)CN(C(=O)C3CCC3)C2)C1 [ZINC001046939982]
107%	CC(C)n1cc(C(=O)N2CC(O)(CNC(=O)c3ccnnc3)C2)nn1 [ZINC001047126822]
61.7%	Cc1ccc(CN2C[C@@H]3CN(C(=O)c4cccn4C)C[C@@H]3C2)cc1C [ZINC001048683995]
105%	Cc1ncc(CNC[C@@H]2CN(C(=O)c3cn(C)cn3)CCO2)cn1 [ZINC001051553588]
132%	O=C(Cn1cnnn1)N[C@H]1CCN(c2ncnc3c2CCC3)C[C@H]1O [ZINC001051633080]
104%	CCN1CC[C@H](N2CCC[C@@H](NC(=O)c3ccc(O)nn3)CC2)C1=O [ZINC001052175095]
104%	COCCn1cc(C(=O)N2C[C@@H](C)[C@@H](NCc3ccccn3)C2)nn1 [ZINC001054647418]
103%	Cc1cnc(C(=O)N2C[C@H]3CN(C(=O)CN(C)C(C)C)C[C@H]3C2)cn1 [ZINC001055138151]
98.5%	CC(=O)NCCN1CCC(NC(=O)c2c(Cl)n[nH]c2C)CC1 [ZINC001055479120]
95.3%	O=C(N[C@H]1CCN(c2cc(Cl)c(O)nn2)C1)c1c[nH]c(=O)cn1 [ZINC001058532763]
93.6%	Cn1nnc2c(N3C[C@H]4CC[C@@H](C3)N4C(=O)c3cc[nH]n3)ncnc21 [ZINC001058732454]
76%	O=C(NCC[C@@H]1CCN(C(=O)c2ccncn2)C1)c1c[nH]c(=O)cn1 [ZINC001060201073]
62.6%	CN1CCC[C@@H]1C(=O)NC[C@H]1CCCN1c1ncnc2scnc12 [ZINC001061317651]
